Laboratory results taken from patent US4990531A, “Derivatives of 1-arylsulphonyl-2-pyrrolidinone and their use as medicaments” (Roussel Uclaf, priority 1988, dated 1991).
Where two headings read alike, the source gives them in different places. One block for each compound: values may come before it.

How the values were obtained:
[1] = system: isolated ileum; assay: Agonist action on isolated guinea-pig ileum; conditions: negative logarithm of the dose producing 50% of maximum effect
Description: (§1) The interaction of the compounds with various receptors was evaluated on the isolated ileum of a guinea-pig according to the following method.
(§2) Segments of the ileum of guinea-pigs of 2.5-3 cm were washed and immediately suspended in a bath containing 10 ml of Tyrode's solution at 37° C. and aerated with a mixture of oxygen (95%) and carbon dioxide (5%). After a stabilization period of at least 30 minutes contractions were recorded, while the preparation was maintained under constant tension of 1 g, by means of a detector connected to a polygraph. The agonistic action was evaluated by leaving the compound in contact with the isolated tissue for a period necessary to show the maximum […]; then it was washed with the Tyrode's solution. The following dose was added only after the preparation had returned to its base line. Arecoline was used as a reference product. The antagonist action was evaluated on the contractions induced by acetylcholine (1×10^-6 M), histamine (1×10^-5 M), serotonine (1×10^-6 M) and barium chloride (2×10^-4 M). […] The contact time before adding the agonist was one minute.
(§3) For each compound the does response curves are obtained with 4 to 6 different concentrations and 3 to 5 independent tests. The agonist activity is expressed by pD2 (negative logarithm of the dose which produces 50% of the maximum effect).

[2] = system: contractions induced by acetylcholine, isolated ileum; assay: Antagonism of acetylcholine-induced contractions, isolated guinea-pig ileum; conditions: acetylcholine 1×10^-6 M; contact time one minute; read-out: Antagonism with various agents (IC50): Ach.
Description: as §1, §2, §3

[3] = system: contractions induced by acetylcholine, isolated colon; assay: Antagonism of acetylcholine-induced contractions, isolated colon of rat; conditions: acetylcholine 3×10^-6 M; contact 3 minutes
Description: The remarkable antagonist action of the compounds of the invention was confirmed on the isolated colon of rats. In this test it was established whether the antagonist activity was of competitive or non-competitive type.
(§4) The following method was used: segments of the colon of rats of about 2.5 cm are washed and suspended in an insulated bath containing 10 ml of a solution of De Jalon having the following composition: (mM): NaCl 154; KCl 5.7; CaCl2 0.27; NaHCO3 5.9 and glucose 2.5. The temperature of the bath is maintained at 32° C. In these conditions, while maintaining the preparation under a tension of 1 g, the spontaneous activity of the colon is minimal. After a stabilization period of at least 30 minutes, the tension variations are recorded using an isometric transducer connected to a recorder. A series of tests was carried out to evaluate the antagonist activity in relation to the contractions induced by a maximum dose of acetylcholine. (3×10^-6 M).
The compounds are left in contact with the preparation for 3 minutes before adding acetylcholine.
Atropine was used as a reference product. For each compound the dose-response curves are obtained with 4 to 6 different concentrations and 3 to 5 independent tests.

[4] = target: T1, muscarine receptors, involved in the contractions of the colon (Rattus norvegicus, UniProt P08483); assay: Antagonist affinity and type of antagonism (Schild), isolated colon of rat
T1 construct: segments of the colon of rats of about 2.5 cm; from tissue; host or cells: isolated rat colon segments
Description: as §4
For each compound the dose-response curves are obtained with 4 to 6 different concentrations and 3 to 5 independent tests.
In a second series of tests the acetylcholine is added to the bath in cumulative doses according to the van Rossum method (J. M. van Rossum, Arch, Int. Pharmacodyn. 143, 299, 1963). Having obtained two equal and consecutive dose-response curves with acetylcholine, a third dose-responsecurve is obtained in the presence of the compound (contact time of compound before acetylcholine=5 min.) Each compound was tested with 3-4 different concentrations
The antagonist affinity and the type of antagonism (competitive, non-competitive) for the muscarine receptors was calculated according to Schild's method (H. D. Schild, Brit. J. Pharmacol. 2, 189, 1947).

[5] = system: cholinomimetic effects induced by carbachol; assay: In vivo anticholinergic action: inhibition of carbachol-induced cholinomimetic effects; design: species or system CD1 male mice; conditions: for ED50 / ED (1 degree C): Mus musculus, ip, 0.5 h; for ED (1 degree C): rectal temperature, read-out: Body Temperature: dose able to increase by 1° C. the hypothermic effect induced by carbachol
Description: The anticholinergic activity of the compounds was determined by evaluating the capacity to inhibit cholinomimetic effects induced by carbachol. Atropine sulphate was used as reference product.
CD1 male mice are used weighing 25 to 30 g. They are divided into groups of 5 animals and treated by intraperitoneal route, in scaled doses, with the products or with 0.25% of Methocel for the controls. 10 animals are used for each dose. 30 minutes after the administration of the compounds, the mice are subcutaneously injected with 1 mg/kg of carbachol, dissolved in physiological serum.
Each animal was examined 30 minutes after the injection of carbachol to evaluate the presence of diarrhea, salivation and watering of the eyes; the body temperature was also measured using a thermocouple inserted 1.5 cm into the rectum.
For each compound, there was determined, and recorded in the following table, the dose able to inhibit, in 50% of the animals, the appearance of peripheral cholinomimetic symptoms induced by carbachol, and to increase by 1° C. the hypothermic effect induced by the cholinergic agent.

[6] = Solubility in various solvents; type: physicochemical
[7] = system: contractions induced by barium chloride, isolated ileum; assay: Antagonism of barium chloride-induced contractions, isolated guinea-pig ileum; conditions: barium chloride 2×10^-4 M; contact time one minute; read-out: Antagonism with various agents (IC50): BaCL2
Description: as §1, §2, §3

[8] = i.p., carbachol 1 mg/kg s.c. 30 min later, read-out: dose able to inhibit, in 50% of the animals, Diarrhea
[9] = i.p., carbachol 1 mg/kg s.c. 30 min later, read-out: dose able to inhibit, in 50% of the animals, Salivation
[10] = i.p., carbachol 1 mg/kg s.c. 30 min later, read-out: dose able to inhibit, in 50% of the animals, Watering of Eyes
[11] = i.p., carbachol 1 mg/kg s.c. 30 min later

T1 sequence (P08483 whole entry): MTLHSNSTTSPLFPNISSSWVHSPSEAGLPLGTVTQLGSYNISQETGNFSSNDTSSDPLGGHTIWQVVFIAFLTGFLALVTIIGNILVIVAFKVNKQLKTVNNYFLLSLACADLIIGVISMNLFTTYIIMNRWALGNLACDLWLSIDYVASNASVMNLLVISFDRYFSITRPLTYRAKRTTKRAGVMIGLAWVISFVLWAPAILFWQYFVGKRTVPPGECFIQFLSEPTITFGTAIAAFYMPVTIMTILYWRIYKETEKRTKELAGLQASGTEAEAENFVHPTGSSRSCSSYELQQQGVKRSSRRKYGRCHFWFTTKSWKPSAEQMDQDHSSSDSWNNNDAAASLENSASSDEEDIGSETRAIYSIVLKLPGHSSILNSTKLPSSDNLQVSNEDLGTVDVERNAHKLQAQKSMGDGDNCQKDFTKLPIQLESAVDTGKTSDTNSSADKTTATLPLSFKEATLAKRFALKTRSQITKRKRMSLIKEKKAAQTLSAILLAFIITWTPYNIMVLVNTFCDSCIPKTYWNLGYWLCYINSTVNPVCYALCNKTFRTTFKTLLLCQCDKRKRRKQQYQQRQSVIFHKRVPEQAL

SMILES: COC(=O)C1=CCCN(C)C1 [Arecoline, reference compound]
Agonist Action (pD2) [1]: 6.68

SMILES: CN1[C@@H]2CC[C@H]1C[C@@H](OC(=O)C(CO)c1ccccc1)C2 (stereo partly shown) [Atropine, reference compound]
IC50 [2]: 9.5 nM
IC50 [3]: 27 nM
"Slope" of Schild plot, isolated colon of rat ([4]; cumulative acetylcholine, Schild's method, contact 5 min): 0.97
displacement of the dose-response curve of acetylcholine ([4]; isolated colon of rat, in words): parallel displacement towards the right of the dose-response curve of acetyl-choline without reducing the maximum contraction
ED50 ([5]; read-out: dose able to inhibit, in 50% of the animals, Diarrhea): 0.04 mg/kg
ED50 ([5]; read-out: dose able to inhibit, in 50% of the animals, Salivation): 0.06 mg/kg
ED50 ([5]; read-out: dose able to inhibit, in 50% of the animals, Watering of Eyes): 0.05 mg/kg

solubility ([6]; 2N hydrochloric acid): insoluble
solubility ([6]; 2N sodium hydroxide): insoluble
solubility ([6]; acetone): slightly soluble
solubility ([6]; alcohol at 95°): slightly soluble
solubility ([6]; benzene): slightly soluble
solubility ([6]; chloroform): Soluble
solubility ([6]; ethyl ether): insoluble
solubility ([6]; water): insoluble
SMILES: CN(C)c1ccc(S(=O)(=O)N2CCCC2=O)cc1 [Example 3]

SMILES: O=C1CCCN1S(=O)(=O)c1ccc(N2CCCCC2)cc1 [Example 10, 1-[4-(1-piperidinyl)phenylsulphonyl]-2-pyrrolidinone]
ED50 [5, 8]: 3 mg/kg
ED50 [5, 9]: 50 mg/kg
ED50 [5, 10]: > 50 mg/kg
ED (1 degree C) [5, 11]: > 50 mg/kg
selective anticholinergic action in vivo ([5]; i.p., mice, in words): selective anticholinergic action on the intestinal musculature

SMILES: O=C1CCCN1S(=O)(=O)c1ccc(N2CCCCCC2)cc1 [Example 18, 1-[4-(4-hexahydroazepin)phenylsulphonyl]-2-pyrrolidinone]
ED50 [5, 8]: 1 mg/kg
ED50 [5, 9]: 15 mg/kg
ED50 [5, 10]: 50 mg/kg
ED (1 degree C) [5, 11]: 15 mg/kg

SMILES: COc1ccc(Cc2nccc3cc(OC)c(OC)cc23)cc1OC [Papaverine, reference compound]
IC50 [7]: 45000 nM

SMILES: C[N+](C)(C)CCOC(N)=O [carbachol, reference compound]
decrease in rectal temperature ([5]; carbachol 1 mg/kg s.c., control mice): about 2.5 °C
induction of diarrhea, salivation and watering of the eyes ([5]; carbachol 1 mg/kg s.c., control mice, in words): induced diarrhea, salivation and watering of the eyes in all the control mice
